From patent US20250320193A1, “OXOISOINDOLINYL SUBSTITUTED PIPERIDINEDIONE DERIVATIVE AND USE THEREOF” (GLUETACS THERAPEUTICS (SHANGHAI) CO., LTD., priority 2022, published 2025)

Molecular target: human Cereblon WT GST-tagged protein (Homo sapiens (Human), UniProt Q96SW2)
Test: CRBN-binding affinity, HTRF (CEREBLON BINDING kit, CISBIO)
Details: HTRF inhibitory activity
Procedure: I. Determination of CRBN-binding affinity of compounds of the present disclosure:
The CEREBLON BINDING kits (specification: 10,000 tests; product number: Catalog #64BDCRBNPEH; CISBIO company) was used to determine the CRBN binding ability of the compounds to be tested through a HTRF method (homogeneous time-resolved fluorescence). The specific methods are as follows: • 1. […] Then, 2.5 μL of human Cereblon WT GST-tagged protein solution was added to each well. Finally, 5 μL of the thoroughly mixed Thalidomide-Red reagent and GST Eu antibody working solution were added to each of the aforementioned wells. […] The blank control wells were sequentially added with 2.5 μL of diluent #9 (1X) solution, 2.5 μL of PROTAC binding buffer, and 5 μL of thoroughly mixed Thalidomide-Red reagent and GST Eu antibody working solution. • 4.
The corresponding CRBN binding inhibition rate was calculated using the following method: […]
OD 620 nmcompound is the absorbance value of each well of the compounds to be tested of the present disclosure at an emission wavelength of 620 nm. […] OD 620 nmcontrol is the absorbance value of the blank control well at an emission wavelength of 620 nm. […] OD 620 nmStd0 is the absorbance value of the solvent control well at an emission wavelength of 620 nm.

human Cereblon WT GST-tagged protein, sequence (Q96SW2 whole entry): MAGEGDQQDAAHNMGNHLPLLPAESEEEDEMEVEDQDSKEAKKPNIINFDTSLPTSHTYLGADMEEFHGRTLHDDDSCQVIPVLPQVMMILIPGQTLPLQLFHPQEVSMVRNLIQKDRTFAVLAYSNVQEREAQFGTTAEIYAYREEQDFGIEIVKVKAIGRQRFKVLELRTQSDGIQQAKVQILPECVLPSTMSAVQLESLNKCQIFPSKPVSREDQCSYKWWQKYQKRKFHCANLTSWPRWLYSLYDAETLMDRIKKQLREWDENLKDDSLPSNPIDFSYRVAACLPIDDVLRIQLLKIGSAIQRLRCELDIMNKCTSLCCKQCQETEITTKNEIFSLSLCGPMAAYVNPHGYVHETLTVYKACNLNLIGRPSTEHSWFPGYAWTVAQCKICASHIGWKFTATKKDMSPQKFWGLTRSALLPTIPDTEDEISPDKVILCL

Structure (SMILES)	IC50
O=C1CCC(N2Cc3cc(CN4CCN(C(c5ccc(Cl)cc5)c5ccc(Cl)cc5)CC4)cc(F)c3C2=O)C(=O)N1 (stereo not shown) [GT-03568, 3-(5-((4-(bis(4-chlorophenyl)methyl)piperazin-1-yl)methyl)-7-fluoro-1-oxoisoindolin-2-yl)piperidine-2,6-dione]	1 to 1.9 µM
O=C1CCC(N2Cc3c(ccc(CN4C[C@H]5C[C@@H]4CN5C(c4ccccc4)c4ccccc4)c3F)C2=O)C(=O)N1 (stereo partly drawn) [GT-03573, 3-(5-(((1R,4R)-5-benzhydryl-2,5-diazabicyclo[2.2.1]heptan-2-yl)methyl)-4-fluoro-1-oxoisoindolin-2-yl)piperidine-2,6-dione]	< 0.5 µM
O=C1CCC(N2Cc3cc(CN4C[C@H]5C[C@@H]4CN5C(c4ccccc4)c4ccccc4)cc(F)c3C2=O)C(=O)N1 (stereo partly drawn) [GT-03576, 3-(5-(((1R,4R)-5-benzhydryl-2,5-diazabicyclo[2.2.1]heptan-2-yl)methyl)-7-fluoro-1-oxoisoindolin-2-yl)piperidine-2,6-dione]	< 0.5 µM
C[C@@H]1CN(C(c2ccccc2)c2ccccc2)CCN1Cc1cc(F)c2c(c1)CN(C1CCC(=O)NC1=O)C2=O (stereo partly drawn) [GT-03577, 3-(5-(((R)-4-benzhydryl-2-methylpiperazin-1-yl)methyl)-7-fluoro-1-oxoisoindolin-2-yl)piperidine-2,6-dione]	< 0.5 µM
O=C1CCC(N2Cc3c(CN4CCN(C(c5ccccc5)c5ccccc5)CC4)cccc3C2=O)C(=O)N1 (stereo not shown) [GT-03646, 3-(4-((4-benzhydrylpiperazin-1-yl)methyl)-1-oxoisoindolin-2-yl)piperidine-2,6-dione]	0.5 to 1 µM
O=C1CCC(N2Cc3cc(CN4CCN(C(c5ccccc5)c5ccccn5)CC4)cc(F)c3C2=O)C(=O)N1 (stereo not shown) [GT-03834, 3-(7-fluoro-1-oxo-5-((4-(phenyl(pyridin-2-yl)methyl)piperazin-1-yl)methyl)isoindolin-2-yl)piperidine-2,6-dione]	< 0.5 µM
CC1CN(C(c2ccccc2)c2ccccc2)CC(C)N1Cc1cc(F)c2c(c1)CN(C1CCC(=O)NC1=O)C2=O (stereo not shown) [GT-03874, 3-(5-((4-benzhydryl-2,6-dimethylpiperazin-1-yl)methyl)-7-fluoro-1-oxoisoindolin-2-yl)piperidine-2,6-dione]	< 0.5 µM
O=C1CCC(N2Cc3c(CN4CCN(C(c5cccc(F)c5)c5cccc(F)c5)CC4)cccc3C2=O)C(=O)N1 (stereo not shown) [GT-03875, 3-(4-((4-(bis(3-fluorophenyl)methyl)piperazin-1-yl)methyl)-1-oxoisoindolin-2-yl)piperidine-2,6-dione]	0.5 to 1 µM
CC1(C)CN(Cc2ccc3c(c2)CN(C2CCC(=O)NC2=O)C3=O)CCN1C(c1ccccc1)c1ccccc1 (stereo not shown) [GT-04165, 3-(5-((4-benzhydryl-3,3-dimethylpiperazin-1-yl)methyl)-1-oxoisoindolin-2-yl)piperidine-2,6-dione]	< 0.5 µM
CC1(C)CN(Cc2ccc3c(c2F)CN(C2CCC(=O)NC2=O)C3=O)CCN1C(c1ccccc1)c1ccccc1 (stereo not shown) [GT-04166, 3-(5-((4-benzhydryl-3,3-dimethylpiperazin-1-yl)methyl)-4-fluoro-1-oxoisoindolin-2-yl)piperidine-2,6-dione]	0.5 to 1 µM
O=C1CCC(N2Cc3cc(CN4C(=O)c5cccc6cccc(c56)C4=O)ccc3C2=O)C(=O)N1 (stereo not shown) [GT-04244, 2-((2-(2,6-dioxopiperidin-3-yl)-1-oxoisoindolin-5-yl)methyl)-1H-benzo[de]isoquinoline-1,3(2H)-dione]	< 0.5 µM
O=C1CCC(N2Cc3ccc(CN4CCN(C(c5ccccc5)c5ccccc5)CC4)cc3C2=O)C(=O)N1 (stereo not shown) [GT-05686, 3-(6-((4-benzhydrylpiperazin-1-yl)methyl)-1-oxoisoindolin-2-yl)piperidine-2,6-dione]	1 to 1.9 µM
O=C1CCC(N2Cc3cc(CN4CCN(C(c5ccccn5)c5ccccn5)CC4)cc(F)c3C2=O)C(=O)N1 (stereo not shown) [GT-05714, 3-(5-((4-(di(pyridin-2-yl)methyl)piperazin-1-yl)methyl)-7-fluoro-1-oxoisoindolin-2-yl)piperidine-2,6-dione]	1 to 1.9 µM
O=C1CCC(N2Cc3c(CN4CCN(C(c5ccccn5)c5ccccn5)CC4)cccc3C2=O)C(=O)N1 (stereo not shown) [GT-05715, 3-(4-((4-(di(pyridin-2-yl)methyl)piperazin-1-yl)methyl)-1-oxoisoindolin-2-yl)piperidine-2,6-dione]	1 to 1.9 µM
O=C1CCC(N2Cc3c(ccc(CN4CCN(C(c5cccnc5)c5cccnc5)CC4)c3F)C2=O)C(=O)N1 (stereo not shown) [GT-05716, 3-(5-((4-(di(pyridin-3-yl)methyl)piperazin-1-yl)methyl)-4-fluoro-1-oxoisoindolin-2-yl)piperidine-2,6-dione]	< 0.5 µM
O=C1CCC(N2Cc3ccc(CN4CCN(C(c5ccc(F)cc5)c5ccc(F)cc5)CC4)cc3C2=O)C(=O)N1 (stereo not shown) [GT-05719, 3-(6-((4-(bis(4-fluorophenyl)methyl)piperazin-1-yl)methyl)-1-oxoisoindolin-2-yl)piperidine-2,6-dione]	0.5 to 1 µM
O=C1CCC(N2Cc3cccc(CN4CCN(C(c5ccc(F)cc5)c5ccc(F)cc5)CC4)c3C2=O)C(=O)N1 (stereo not shown) [GT-05720, 3-(7-((4-(bis(4-fluorophenyl)methyl)piperazin-1-yl)methyl)-1-oxoisoindolin-2-yl)piperidine-2,6-dione]	1 to 1.9 µM
O=C1CCC(N2Cc3c(C(=O)N4CCN(C(c5ccccc5)c5ccccc5)CC4)cccc3C2=O)C(=O)N1 (stereo not shown) [GT-05721, 3-(4-(4-benzhydrylpiperazine-1-carbonyl)-1-oxoisoindolin-2-yl)piperidine-2,6-dione]	0.5 to 1 µM
O=C1CCC(N2C(=O)c3ccc(CN4C5CC4CN(C(c4ccccc4)c4ccccc4)C5)cc3C2=O)C(=O)N1 (stereo not shown) [GT-05728, 5-((3-benzhydryl-3,6-diazabicyclo[3.1.1]heptan-6-yl)methyl)-2-(2,6-dioxopiperidin-3-yl) isoindoline-1,3-dione]	1 to 1.9 µM
O=C1CCC(N2Cc3ccc(CN4CCN(C(c5ccc(Cl)cc5)c5ccc(Cl)cc5)CC4)cc3C2=O)C(=O)N1 (stereo not shown) [GT-05735, 3-(6-((4-(bis(4-chlorophenyl)methyl)piperazin-1-yl)methyl)-1-oxoisoindolin-2-yl)piperidine-2,6-dione]	1 to 1.9 µM
O=C1CCC(N2Cc3cccc(CN4CCN(C(c5ccc(Cl)cc5)c5ccc(Cl)cc5)CC4)c3C2=O)C(=O)N1 (stereo not shown) [GT-05736, 3-(7-((4-(bis(4-chlorophenyl)methyl)piperazin-1-yl)methyl)-1-oxoisoindolin-2-yl)piperidine-2,6-dione]	1 to 1.9 µM
O=C1CCC(N2Cc3cc(NN4CCN(C(c5ccccc5)c5ccccc5)CC4)ccc3C2=O)C(=O)N1 (stereo not shown) [GT-05743, 3-(5-((4-benzhydrylpiperazin-1-yl)amino)-1-oxoisoindolin-2-yl)piperidine-2,6-dione]	1 to 1.9 µM
O=C1CCC(N2Cc3cc(C=C4CN(C(c5ccccc5)c5ccccc5)C4)ccc3C2=O)C(=O)N1 (stereo not shown) [GT-05745, 3-(5-((1-benzhydrylazetidin-3-ylidene)methyl)-1-oxoisoindolin-2-yl)piperidine-2,6-dione]	< 0.5 µM
O=C1CCC(N2Cc3cc(NC4CCN(C(c5ccccc5)c5ccccc5)CC4)ccc3C2=O)C(=O)N1 (stereo not shown) [GT-05864, 3-(5-((1-benzhydrylpiperidin-4-yl)amino)-1-oxoisoindolin-2-yl)piperidine-2,6-dione]	< 0.5 µM
O=C1CCC(N2Cc3cc(N4CC5CCC(C4)N5C(c4ccccc4)c4ccccc4)ccc3C2=O)C(=O)N1 (stereo not shown) [GT-05865, 3-(5-(8-benzhydryl-3,8-diazabicyclo[3.2.1]octan-3-yl)-1-oxoisoindolin-2-yl)piperidine-2,6-dione]	0.5 to 1 µM
